# Test results as given in patent US20210292277A1 (priority 2020, published 2021).
# Where “and” joins values, the source holds several entries; their conditions need not be identical. Equal values may be shown once.
# Key:
# [1] = system: 17 coronavirus proteases from human and animal coronaviruses; format: cell-based
# SARS-CoV-2 [2] = assay: microbe, parasite or virus in culture; format: cell-based; conditions: Severe acute respiratory syndrome coronavirus 2; SARS-CoV-2 infected cells, dose response FIG. 3; read-out: EC50 against SARS-CoV-2
# [3] = system: COVID-19/SARS-CoV-2 virus; format: cell-based
# SARS-CoV-2 [4] = assay: Antiviral efficacy in hamsters challenged intranasally with SARS-CoV-2, S.C. GC376; format: in vivo, hamster; conditions: for trachea PFU: trachea samples
# From the text: The hamsters were sacrificed and various tissues were collected for analysis.
# SARS CoV-2 = assay: Antiviral efficacy of GC376 and REMDESIVIR in golden Syrian hamsters challenged intranasally with SARS-CoV-2, IP; format: in vivo, golden Syrian female hamsters; conditions: for body weights: IP injection for eight days, versus control animals with SARS-CoV-2 alone; for lung PFU: lung samples, days 4 and 14
# From the text: The animals were sacrificed at days 4, 8, or 14 following initiation of the experiment and the various tissues were then collected for analysis. Detailed experimental design and experimental parameters can be found in FIG. 9A, FIG. 9B, and FIG. 10.
# [5] = system: SARS-CoV-2 viral infection; assay: Treatment of a patient suffering from COVID-19; format: in vivo; conditions: human patient, intravenous, subcutaneous, or oral, daily for 21 days
# SARS-CoV-2 virus = assay: Prophylactic treatment of a patient susceptible to COVID-19; format: in vivo; conditions: human patient at risk, daily for 21 days beginning one week prior to possible exposure
# [6] = CC50 in the structure table of GC543 and GC583 (no method given); format: cell-based; conditions: cells not given
smiles,measurement,setting,value
CC(C)C[C@H](NC(=O)OCc1ccccc1)C(=O)N[C@@H](C[C@@H]1CCNC1=O)C(O)S(=O)(=O)[O-].[Na+] (stereo partly drawn) [GC376],activity against coronavirus proteases,[1],"activity across all coronaviruses tested, including SARS-CoV-2"
same,EC50,SARS-CoV-2 [2],~0.81 µM
same,lowering of virus titer,[3]; 5 μM GC376 versus virus solution without GC376,approximately 15 fold
same,"PFU/ml, average","[3]; virus solution with 5 μM GC376, average of three replicate plates",2.1×10^6 pfu/ml
same,"PFU/ml, each replicate plate","[3]; virus solution with 5 μM GC376, individual plates",2.75×10^6 pfu/ml and 2.25×10^6 pfu/ml and 1.30×10^6 pfu/ml
same,body weight at 10 mg/kg/day and 25 mg/kg/day,"SARS-CoV-2 [4]; 10 mg/kg/day and 25 mg/kg/day, versus infected controls without GC376","appeared to lose more weight initially, but by the eighth day following initiation of the experiment had a body weight that was similar to the control animals"
same,lung PFU versus control,SARS-CoV-2 [4]; 100 mg/kg/day cohort,"had fewer PFUs in their lungs than the control animal, although two animals had more PFUs than the control"
same,body weights of individual hamsters,"SARS-CoV-2 [4]; each individual hamster, days 0-8, any dose",trend show for each animal to regain its normal body weight
same,trachea PFU,SARS-CoV-2 [4]; 100 mg/kg/day group,did show noticeable PFU formation from trachea samples
same,trachea PFU,SARS-CoV-2 [4]; all groups,most of the animals did not show PFUs from samples taken from the trachea
same,body weights,SARS CoV-2,maintained similar body weights to the control animals
same,lung PFU,SARS CoV-2,reduction of PFU at days 4 and 14
same,outcome after 21 days of treatment,[5],recovered from the SARS-CoV-2 infection
same,outcome after prophylactic treatment,SARS-CoV-2 virus,not have developed COVID-19 or a SARS-CoV-2 infection
O=C[C@@H](C[C@@H]1CCNC1=O)NC(=O)[C@H](CC1CCCCC1)NC(=O)OCc1ccccc1 [GC543],CC50,[6],> 100 µM
O=C[C@@H](C[C@@H]1CCNC1=O)NC(=O)[C@H](CC1CCCCC1)NC(=O)OCc1cccc(Cl)c1 [GC583],CC50,[6],> 100 µM
CCC(CC)COC(=O)[C@H](C)N[P@](=O)(OC[C@H]1O[C@@](C#N)(c2ccc3c(N)ncnn23)[C@H](O)[C@@H]1O)Oc1ccccc1 [reference compound],body weights,SARS CoV-2,maintained similar body weights to the control animals
same,lung PFU,SARS CoV-2,reduction of PFU at days 4 and 14
